The target in assay [1] is T1, human eIF4E protein (Homo sapiens, UniProt P06730).
T1 construct: purchased Novus NBP-45314
Nature of the assay: Biochemical competitive binding assay (TR-FRET competition). As to conditions: recombinant 6xHIS-tagged human eIF4E, EDA-m7GDP-ATTO-647N probe; read-out: hEIF4E TR-FRET IC50. As to the method: The potencies of compounds binding to human eIF4E protein were measured using a 384-well time-resolved fluorescence resonance energy transfer (TR-FRET) competition assay. The assay was performed in assay buffer containing 50 mM HEPES pH 7.5, 100 mM KCl, 0.02% Tween-20, and 0.1 mg/mL bovine serum albumin (BSA). The reaction volume was 10 μL and each reaction contained 4 nM recombinant 6×HIS-tagged human eIF4E protein (Novus, NBP-45314), 5 nM EDA-m7GDP-ATTO-647N (Jena Bioscience, NU-827-647N), 2.5 nM Europium conjugated Anti-6×HIS antibody (PerkinElmer, AD0402) and varying concentrations of compound. The final DMSO concentration was 1%.
Compounds were prepared using 11-point, 4-fold serial dilutions in DMSO and 100 nL of diluted compounds were transferred to 384-well assay-ready plates. Recombinant human eIF4E protein at 2× final concentration (8 nM) was pre-incubated with Eu-anti-6×HIS antibody at 2× final concentration (5 nM) for 5 minutes, then 5 μL of the protein solution was added to assay-ready plates. The protein/compound mix was incubated for 15 minutes, after which 5 μL of a solution containing EDA-m7GDP-ATTO-647N probe at 2× final concentration (10 nM) was added. After a subsequent 15-minute incubation, time-resolved fluorescence of assay plates was measured using a Clariostar Plus microplate reader (BMG Labtech) and TR-FRET values were calculated by taking a ratio of the 665 to 620 wavelength signals. After normalization to the average of DMSO control and maximum inhibition control wells, concentration-response data were plotted and standard 4-parameter curve fitting (PEI Signals) was utilized to determine IC50 values.

In assay [2] the test system is cap-dependent translation in Flp-In-293 reporter cells. In words: Cellular cap-dependent translation inhibition dual luciferase assay (DLA). The assay is classed as cell-based. As to conditions: Homo sapiens, ratio of Fluc (cap-dependent) to Rluc (IRES) luminescence, 24 hours of compound treatment.

31 compounds from patent US20260176277A1, “COMPOUNDS AND COMPOSITIONS AS eIF4E INHIBITORS AND USES THEREOF” (Ribometrix, Inc., priority 2022, published 2026) can be followed below.

T1 sequence (P06730 whole entry): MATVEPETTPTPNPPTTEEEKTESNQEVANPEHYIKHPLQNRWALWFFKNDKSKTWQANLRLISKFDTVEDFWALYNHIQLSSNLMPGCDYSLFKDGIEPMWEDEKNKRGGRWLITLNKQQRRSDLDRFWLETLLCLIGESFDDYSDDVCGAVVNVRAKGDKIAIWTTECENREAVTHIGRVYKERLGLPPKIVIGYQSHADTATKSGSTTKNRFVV

With `Cc1nc2c(c(=O)n1CCOc1ccc(Cl)cc1-c1cccc(C(=O)O)c1)CN(C)CC2` [Compound 1], the IC50 in assay [1] was under 0.4 µM.

As to `Cc1nc2c(c(=O)n1CCOc1ccc(Cl)cc1-c1ccc(C(=O)O)cc1)CN(C)CC2` [Compound 2], in assay [1], the IC50 lay in the range of 10 to 100 µM.

In the case of `CN1CCc2ncn(CCOc3ccc(Cl)cc3-c3cccc(C(=O)O)c3)c(=O)c2C1` [Compound 3], the IC50 in assay [1] fell in the range of 10 to 100 µM.

Regarding `CCN1CCc2nc(C)n(CCOc3ccc(Cl)cc3-c3cccc(C(=O)O)c3)c(=O)c2C1` [Compound 4], the results for the IC50 in assay [1] and in assay [2] were under 0.4 µM and 10 to 20 µM, respectively.

Consider `Cc1nc2c(c(=O)n1CCOc1ccc(Cl)cc1-c1cccc(C(=O)O)c1)CN(C1CCOCC1)CC2` [Compound 5], for which the results for the IC50 in assay [1] and in assay [2] were 0.4 to 10 µM and over 20 µM, respectively.

In the case of `COCCN1CCc2nc(C)n(CCOc3ccc(Cl)cc3-c3cccc(C(=O)O)c3)c(=O)c2C1` [Compound 6], the IC50 in assay [1] lay in the range of 0.4 to 10 µM.

On to `CC(=O)N1CCc2nc(C)n(CCOc3ccc(Cl)cc3-c3cccc(C(=O)O)c3)c(=O)c2C1` [Compound 7], for which the IC50 in assay [1] lay in the range of 0.4 to 10 µM.

For the compound `Cc1nc2c(c(=O)n1CCOc1ccc(Cl)cc1-c1ccnc3c(C(=O)O)csc13)CN(C)CC2` [Compound 8], the IC50 in assay [1] was under 0.4 µM; in assay [2], under 10 µM.

On to `Cc1nc2c(c(=O)n1CCOc1ccc(Cl)cc1-c1ccnc(C(=O)O)c1)CN(C)CC2` [Compound 9], for which the IC50 is under 0.4 µM in assay [1] and over 20 µM in assay [2].

Consider `COCCN1CCc2nc(C)n(CCOc3ccc(Cl)cc3-c3ccnc(C(=O)O)c3)c(=O)c2C1` [Compound 10], for which the IC50 is under 0.4 µM in assay [1] and over 20 µM in assay [2].

As for `Cc1nc2c(c(=O)n1CCOc1ccc(Cl)cc1-c1cccc(C(=O)O)c1)CN(C1COC1)CC2` [Compound 11], the IC50 is 10 to 100 µM in assay [1] and over 20 µM in assay [2].

On to `Cc1nc2c(c(=O)n1CCOc1ccc(Cl)cc1-c1cccc(C(=O)O)c1F)CN(C)CC2` [Compound 12], for which the results for the IC50 in assay [1] and in assay [2] were under 0.4 µM and over 20 µM, respectively.

On to `Cc1nc2c(c(=O)n1CCOc1ccc(Cl)cc1-c1ccnc(C(=O)NS(C)(=O)=O)c1)CN(C)CC2` [Compound 13], for which the IC50 in assay [1] was under 0.4 µM; in assay [2], over 20 µM.

`Cc1nc2c(c(=O)n1CCOc1ccc(Cl)cc1-c1ccnn3c(C(=O)O)ccc13)CN(C)CC2` [Compound 14]: the IC50 in assay [1] is under 0.4 µM; in assay [2], under 10 µM.

Regarding `Cc1nc2c(c(=O)n1CCOc1ccc(Cl)cc1-c1ccnc(-c3n[nH]c(=O)o3)c1)CN(C)CC2` [Compound 15], the IC50 in assay [1] was 0.4 to 10 µM; in assay [2], over 20 µM.

With `Cc1nc2c(c(=O)n1CCOc1ccc(Br)cc1-c1cccc(C(=O)O)c1)CN(C)CC2` [Compound 16], the IC50 is under 0.4 µM in assay [1] and over 20 µM in assay [2].

Turning to `Cc1nc2c(c(=O)n1CCOc1cnc(Cl)cc1-c1ccnc(C(=O)O)c1)CN(C)CC2` [Compound 17], the IC50 was 0.4 to 10 µM in assay [1] and over 20 µM in assay [2].

`Cc1cc(-c2cc(Cl)ccc2OCCn2c(C)nc3c(c2=O)CN(c2ccccc2F)CC3)c2scc(C(=O)O)c2n1` [Compound 18]: the IC50 in assay [1] is under 0.4 µM; in assay [2], under 10 µM.

`Cc1cc(-c2cc(Cl)ccc2OCCn2c(C)nc3c(c2=O)CN(c2cc(F)ccc2F)CC3)c2scc(C(=O)O)c2n1` [Compound 19]: the IC50 is under 0.4 µM in assay [1] and under 10 µM in assay [2].

Turning to `Cc1cc(-c2cc(Cl)ccc2OCCn2c(C)nc3c(c2=O)CN(Cc2ccncc2)CC3)c2scc(C(=O)O)c2n1` [Compound 20], the IC50 was under 0.4 µM in assay [1] and under 10 µM in assay [2].

`Cc1cc(-c2cc(Cl)ccc2OCCn2c(C)nc3c(c2=O)CN(c2ccnc4ccncc24)CC3)c2scc(C(=O)O)c2n1` [Compound 21]: the IC50 in assay [1] was under 0.4 µM; in assay [2] it was under 10 µM.

For the compound `Cc1cc(-c2cc(Cl)ccc2OCCn2c(C)nc3c(c2=O)CN(c2ccn4ncnc4c2)CC3)c2scc(C(=O)O)c2n1` [Compound 22], the IC50 in assay [1] was under 0.4 µM; in assay [2] it was 10 to 20 µM.

Turning to `COc1cc(N2CCc3nc(C)n(CCOc4ccc(Cl)cc4-c4cc(C)nc5c(C(=O)O)csc45)c(=O)c3C2)ccn1` [Compound 23, 7-[5-chloranyl-2-[2-[6-(2-methoxy-4-pyridyl)-2-methyl-4-oxidanylidene-7,8-dihydro-5H-pyrido[4,3-d]pyrimidin-3-yl]ethoxy]phenyl]-5-methyl-thieno[3,2-b]pyridine-3-carboxylic acid; 2,2,2-tris(fluoranyl) acetic acid], the results for the IC50 in assay [1] and in assay [2] were under 0.4 µM and under 10 µM, respectively.

For the compound `Cc1cc(-c2cc(Cl)ccc2OCCn2c(C)nc3c(c2=O)CN(CC(F)(F)F)CC3)c2scc(C(=O)O)c2n1` [Compound 24, 7-[5-chloranyl-2-[2-[2-methyl-4-oxidany-lidene-6-[2,2,2-tris(fluoranyl)ethyl]-7,8-dihydro-5H-pyrido[4,3-d]pyrimidin-3-yl]ethoxy]phenyl]-5-methyl-thieno[3,2-b]pyridine-3-carboxylic acid; 2,2,2-tris(fluoranyl) acetic acid], the values for the IC50 in assay [1] and in assay [2] were under 0.4 µM and under 10 µM, respectively.

As for `Cc1cc(-c2cc(Cl)ccc2OCCn2c(C)nc3c(c2=O)CN(CC(F)(F)F)CC3)c2scc(C(=O)NS(C)(=O)=O)c2n1` [Compound 25, 7-[5-chloranyl-2-[2-[2-methyl-4-oxidanylidene-6-[2,2,2-tris(fluoranyl)ethyl]-7,8-dihydro-5H-pyrdo[4,3-d]pyrimidin-3-yl]ethoxy]phenyl]-5-methyl-N-methylsulfonyl-thieno[3,2-b]pyridine-3-carboxamide; 2,2,2-tris(fluoranyl) acetic acid], the IC50 was under 0.4 µM in assay [1] and under 10 µM in assay [2].

With `Cc1cc(-c2cc(Cl)ccc2OCCn2c(C)nc3c(c2=O)CN(C)CC3)c2ccc(C(=O)O)n2n1` [Compound 26, 4-[5-chloranyl-2-[2-[2,6-di(methyl)-4-oxidanylidene-7,8-dihydro-5H-pyrido[4,3-d]pyrimidin-3-yl]ethoxy]phenyl]-2-methyl-pyrrolo[1,2-b]pyridazine-7-carboxylic acid], the figures for the IC50 in assay [1] and in assay [2] were under 0.4 µM and under 10 µM, respectively.

Consider `Cc1cc(-c2cc(Cl)ccc2OCCn2c(C)nc3c(c2=O)CN(C)CC3)c2ccc(C(=O)NS(C)(=O)=O)n2n1` [Compound 27, 4-[5-chloranyl-2-[2-[2,6-di(methyl)-4-oxidanylidene-7,8-dihydro-5H-pyrido[4,3-d]pyrimidin-3-yl]ethoxy]phenyl]-2-methyl-N-methylsulfonyl-pyrrolo[1,2-b]pyridazine-7-carboxamide], for which the IC50 in assay [1] is under 0.4 µM; in assay [2], under 10 µM.

`Cc1cc(-c2cc(Cl)ccc2OCCn2c(C)nc3c(c2=O)CN(C)CC3)c2scc(C(=O)NS(C)(=O)=O)c2n1` [Compound 28, 7-[5-chloranyl-2-[2-[2,6-di(methyl)-4-oxidanylidene-7,8-dihydro-5H-pyrido[4,3-d]pyrimidin-3-yl]ethoxy]phenyl]-5-methyl-N-methylsulfonyl-thieno[3,2-b]pyridine-3-carboxamide; 2,2,2-tris(fluoranyl)acetic acid]: the IC50 in assay [1] is under 0.4 µM; in assay [2], under 10 µM.

With `Cc1cc(-c2cc(Cl)ccc2OCCn2c(C)nc3c(c2=O)CN(C)CC3)c2scc(C(=O)O)c2n1` [Compound 29, 7-[5-chloranyl-2-[2-[2,6-di(methyl)-4-oxidanylidene-7,8-dihydro-5H-pyrido[4,3-d]pyrimidin-3-yl]ethoxy]phenyl]-5-methyl-thieno[3,2-b]pyridine-3-carboxylic acid], the IC50 was under 0.4 µM in assay [1] and under 10 µM in assay [2].

Turning to `Cc1cc(-c2cc(Cl)ccc2OCCn2c(C)nc3c(c2=O)CN(C)CCO3)c2scc(C(=O)O)c2n1` [Compound 30, 7-[5-chloranyl-2-[2-[2,6-di(methyl)-4-oxidanylidene-7,8-dihydro-5H-pyrimido[5,4-f][1,4]oxazepin-3-yl]ethoxy]phenyl]-5-methyl-thieno[3,2-b]pyridine-3-carboxylic acid; 2,2,2-tris(fluorenyl) acetic acid], the IC50 in assay [1] was under 0.4 µM; in assay [2], under 10 µM.

As for `Cc1nc2c(c(=O)n1CC#Cc1ccc(Cl)cc1-c1ccnc3c(C(=O)O)csc13)CN(C)CC2` [Compound 31], the values for the IC50 in assay [1] and in assay [2] were 10 to 100 µM and over 20 µM, respectively.
